Assay results published in US11111232B2, “Substituted cyclobutylpyridine and cyclobutylpyrimidine compounds as indoleamine 2,3-dioxygenase (IDO) inhibitors” (MERCK SHARP & DOHME CORP., priority 2017, dated 2021).

Experiments:
Format in all cases: cell-based
IDO1 [1] = molecular target: T1, IDO1 (Homo sapiens, UniProt P14902); test: IDO1 cellular assay in Hela cells stimulated with IFNγ; conditions: IFNγ 100 ng/mL, 300 uM L-tryptophan, about 48 hours, fluorescence readout
Method: IDO1 Cellular Assay in Hela Cells Stimulated with IFNγ
Hela cells were cultured in complete Hela culture medium (90% EMEM, 10% heat-inactivated fetal bovine serum) and expanded to about 1×10^9 cells. The cells were then collected and frozen down at 1×10^7 cells/vial in 1 mL frozen medium (90% complete Hela culture medium, 10% DMSO)
Compounds to be tested were serially diluted in ten 3-fold steps in DMSO starting from 10 mM DMSO stocks in Echo low volume plate(s).
Frozen Hela cells were thawed and transferred into Hela assay medium (99% complete Hela culture medium, 1% Pen/Strep) with 20 mL medium/vial of cells. The cells were spun down at 250 g in a table top centrifuge for 5 min and suspended in same volume of Hela assay medium. […] Sterile L-tryptophan were added to the cells with final concentration of 300 uM L-tryptophan. A small aliquot (2 mL/plate) of Hela cells were set aside and were not treated with IFNγ, to serve as the Max-E control.
Hela cells with and without IFNγ were dispensed to the respective wells of 384-well assay plates containing the compounds. The plates were incubated for about 48 hours at a 37° C., 5% CO2 incubator. Afterwards, […] of 0.5 M methyl isonipecotate in dimethyl sulfoxide were added into each well and the plates were sealed and incubated at 37° C. without CO2 overnight. The plates were centrifuged for 1 min at 200×g. The resulting fluorescence was measured in a Spectramax plate reader (Molecular Devices) with a 400 nm excitation filter and a 510 nm emission filter.
Potencies were calculated by linear least squares fit to the four parameter logistic IC50 equation.

TDO = molecular target: T2, TDO (Homo sapiens, UniProt P48775); test: TDO cellular assay in frozen SW48 cells; conditions: 300 uM L-tryptophan, about 48 hours, fluorescence readout
T2 construct: endogenous in cells; host or cells: SW48 cells (A2780 cells as low-TDO control)
Method: TDO Cellular Assay in Frozen SW48 Cells
SW48 cells were cultured in complete RPMI culture medium (90% RPMI, 10% heat-inactivated fetal bovine serum).
Compounds to be tested were serially diluted in ten 3-fold steps in DMSO starting from 10 mM DMSO stocks in Echo low volume plate(s). […] The cells were spun down at 350 g in a table top centrifuge for 5 minutes and suspended in same volume of RPMI assay medium. […] Sterile L-tryptophan (Sigma, Cat #T0254) was added to the cells with final concentration of 300 uM.
SW48 and A2780 cells were dispensed to the respective wells of 384-well assay plates containing the compounds. The plates were incubated for about 48 hours at a 37° C., 5% CO2 incubator. Afterwards, 12 μL of 0.5 M ethyl isonipecotate (Sigma Aldrich, Cat #E33505) in dimethyl sulfoxide were added into each well and the plates were sealed and incubated at 37° C. without CO2 overnight. The plates were centrifuged for 1 minute at 200×g. The resulting fluorescence was measured in a Spectramax plate reader (Molecular Devices) with a 400 nm excitation filter and a 510 nm emission filter.
The fluorescence intensity of each well was corrected for the background observed in wells with A2780 cells and was expressed as a fraction of the intensity observed in wells of SW48 cells and DMSO only. Potencies were calculated by linear least squares fit to the four parameter logistic IC50 equation.

IDO1 [2] = molecular target: T1, IDO1; test: IDO1 human whole blood assay; set-up: Human whole blood was drawn in sodium heparin coated tubes from healthy internal donors; from tissue; host or cells: human whole blood from healthy donors, stimulated with LPS and IFNγ; conditions: LPS and IFNγ 100 ng/mL, 18 h, kynurenine by LC/MS/MS
Method: IDO1Human Whole Blood Assay
Compounds to be tested were serially diluted in ten 3-fold steps in DMSO starting from 10 mM. […] LPS and IFNγ was prepared in RPMI to a 10× of final conc. (1000 ng/mL), final concentration is 100 ng/mL.
Human whole blood was drawn in sodium heparin coated tubes from healthy internal donors. […] of blood was transferred to each of the wells of a v-bottom 96 well plate. […] of compound was transferred from intermediate dilution plate, and incubated for 15 min. 30 μL from stimulants was then transferred to blood and mixed thoroughly. Plate was covered with breathable membrane and incubated at 37° C. for overnight (18 h).
On day 2 isotope labeled standard of kynurenine and tryptophan was made in water at 10× concentration and […] was added to the blood at […] final concentration. The assay plates were centrifuged at 300×G for 10 min with no brake to separate plasma from red blood cells. […] of plasma samples was removed without disturbing red blood cells. Plasma was diluted with RPMI in 1:1 ratio and proteins were precipitated out with two volume of Acetonitrile. The plates was centrifuged at 4000×G for 60 min. 20 mL of supernatant was carefully transferred to a 384 well plate contain 40 mL of 0.1% formic acid in water and analyzed by LC/MS/MS.
LC/MS/MS analyses were performed using Thermo Fisher's LX4-TSQ Quantum Ultra system. This system consists of four Agilent binary high-performance liquid chromatography (HPLC) pumps and a TSQ Quantum Ultra triple quadruple MS/MS instrument. For each sample, […] were injected onto an Atlantis T3 column (2.1 mm×150 mm, […]) from Waters. The mobile phase gradient pumped at 0.8 mL/min was used to elute the analytes from the column at 25° C. […] Mobile phase A consisted of 0.1% formic acid in water. Mobile phase B consisted of 0.1% of formic acid in acetonitrile. Data was acquired in positive mode using a HESI interface. The operational parameters for the TSQ Quantum Ultra instrument were a spray voltage of 4000 V, capillary temperature of 380° C., vaporizer temperature 400° C., shealth gas 60 arbitrary units, Aux gas 20 arbitrary units, tube lens 85 and collision gas 1.2 mTorr. […] The peak area was integrated by Xcalibur Quan software. The ratios between the kynurenine generated in the reaction and 2D6-Kynurenine spiked-in internal standard were used to generate percentage inhibition and IC50 values. Compounds were titrated and IC50′s were calculated by 4 parameter sigmoidal curve fitting formula.

T2 sequence (P48775 whole entry): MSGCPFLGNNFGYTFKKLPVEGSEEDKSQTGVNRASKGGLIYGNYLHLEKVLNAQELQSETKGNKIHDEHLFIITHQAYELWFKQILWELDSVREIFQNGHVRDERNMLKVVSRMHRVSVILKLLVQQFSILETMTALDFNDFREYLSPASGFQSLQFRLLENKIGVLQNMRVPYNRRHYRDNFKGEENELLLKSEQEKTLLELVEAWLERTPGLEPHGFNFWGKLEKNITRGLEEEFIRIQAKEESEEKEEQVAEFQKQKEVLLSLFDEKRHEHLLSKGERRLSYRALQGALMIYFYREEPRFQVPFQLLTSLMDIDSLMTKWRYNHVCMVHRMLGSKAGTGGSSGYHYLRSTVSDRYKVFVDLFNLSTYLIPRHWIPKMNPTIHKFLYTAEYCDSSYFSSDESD
T1 sequence (P14902 whole entry): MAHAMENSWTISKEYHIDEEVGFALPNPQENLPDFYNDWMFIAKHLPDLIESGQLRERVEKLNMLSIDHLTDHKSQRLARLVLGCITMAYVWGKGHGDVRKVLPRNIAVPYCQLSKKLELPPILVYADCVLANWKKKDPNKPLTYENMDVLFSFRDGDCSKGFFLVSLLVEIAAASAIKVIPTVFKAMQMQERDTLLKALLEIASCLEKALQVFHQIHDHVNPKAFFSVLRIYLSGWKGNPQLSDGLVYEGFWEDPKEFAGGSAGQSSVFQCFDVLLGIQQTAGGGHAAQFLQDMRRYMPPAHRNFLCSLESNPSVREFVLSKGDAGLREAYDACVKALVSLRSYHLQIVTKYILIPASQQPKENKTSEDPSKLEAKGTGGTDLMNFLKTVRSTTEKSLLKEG

IC50 (IDO1 [1]) [nM]	IC50 (TDO) [nM]	IC50 (IDO1 [2]) [nM]	SMILES
15	≥ 10000	1760	O=C(Nc1ccc(C2(C(=O)Nc3ccc(F)cn3)CCC2)nc1)c1cccc(Cl)c1 [Example 37, 3-chloro-N-(6-{1-[(5-fluoropyridin-2-yl)carbamoyl]cyclobutyl}pyridin-3-yl)benzamide]
3	≥ 10000	252	O=C(Nc1ccc(C2(C(=O)Nc3ccc(F)cc3)CCC2)nc1)c1cccc(Cl)c1 [Example 36, 3-Chloro-N-(6-(1-((4-fluorophenyl)carbamoyl)cyclobutyl)pyridin-3-yl)benzamide]
12	≥ 10000	561	O=C(Nc1ccc(C2(C(=O)Nc3ccc(F)cc3)CCC2)cn1)c1cncc(Cl)c1 [Example 25, 5-chloro-N-(5-{1-[(4-fluorophenyl)carbamoyl]cyclobutyl}pyridin-2-yl)pyridine-3-carboxamide]
25	≥ 10000	8560	O=C(Nc1ccc(C2(C(=O)Nc3ccc(F)nc3)CCC2)cn1)C1CCCCC1 [Example 7, N-(5-{1-[(6-fluoropyridin-3-yl)carbamoyl]cyclobutyl}pyridin-2-yl) cyclohexanecarboxamide]
2	–	9	O=C(Nc1ccc(C2(C(=O)Nc3ccc(F)cc3)CCC2)nc1CO)c1cccc(Cl)c1 [Example 55, 3-Chloro-N-(6-(1-((4-fluorophenyl)carbamoyl)cyclobutyl)-2-(hydroxymethyl)pyridin-3-yl)benzamide]
3	≥ 10000	102	O=C(Nc1ccc(C2(C(=O)Nc3ccc(F)cc3)CCC2)cn1)c1cccc(F)c1 [Example 23, 3-Fluoro-N-(5-(1-((4-fluorophenyl)carbamoyl)cyclobutyl)pyridin-2-yl)benzamide]
28	≥ 10000	2880	O=C(Nc1ccc(C2(C(=O)Nc3ccc(F)cc3)CCC2)cn1)c1ccnc(C(F)(F)F)c1 [Example 29, N-(5-{1-[(4-fluorophenyl)carbamoyl]cyclobutyl}pyridin-2-yl)-2-(trifluoromethyl)pyridine-4-carboxamide]
8	≥ 10000	351	N#Cc1cccc(C(=O)Nc2ccc(C3(C(=O)Nc4ccc(F)cc4)CCC3)cn2)c1 [Example 24, 3-cyano-N-(5-{1-[(4-fluorophenyl)carbamoyl]cyclobutyl}pyridin-2-yl)benzamide]
9	≥ 10000	406	O=C(Nc1ccc(C2(NC(=O)c3ccc(Cl)nc3)CCC2)nc1)c1cc(F)cc(F)c1 [Example 41, 6-chloro-N-(1-{5-[(3,5-difluorobenzene-1-carbonyl)amino]pyridin-2-yl}cyclobutyl)pyridine-3-carboxamide]
8	≥ 10000	696	O=C(Nc1ccc(C2(NC(=O)c3ccc(Cl)nc3)CCC2)nc1)c1cccc(Cl)c1 [Example 42, 6-chloro-N-(1-{5-[(3-chlorobenzene-1-carbonyl)amino]pyridin-2-yl}cyclobutyl)pyridine-3-carboxamide]
1700	≥ 10000	–	O=C(NC1(c2ccc(NC(=O)c3ncccn3)cn2)CCC1)c1ccc(Cl)nc1 [Example 50, N-(6-{1-[(6-chloropyridine-3-carbonyl)amino]cyclobutyl}pyridin-3-yl)pyrimidine-2-carboxamide]
13	≥ 10000	–	O=C(Nc1ccc(C2(C(=O)Nc3ccc(F)cc3)CCC2)cn1)c1cc(Cl)ccn1 [Example 26, 4-chloro-N-(5-{1-[(4-fluorophenyl)carbamoyl]cyclobutyl}pyridin-2-yl)pyridine-2-carboxamide]
103	≥ 10000	–	CC(C)(C)OC(=O)Nc1ccc(C2(C(=O)Nc3ccc(F)cc3)CCC2)cn1 [Example 19, tert-butyl (5-{1-[(4-fluorophenyl)carbamoyl]cyclobutyl}pyridin-2-yl)carbamate]
1060	≥ 10000	–	Cc1cc(C(=O)Nc2ccc(C3(NC(=O)c4ccc(Cl)nc4)CCC3)nc2)ccn1 [Example 46, 6-chloro-N-(1-{5-[(2-methylpyridine-4-carbonyl)amino]pyridin-2-yl}cyclobutyl)pyridine-3-carboxamide]
96	≥ 10000	–	CC(C)(C)CCC(=O)Nc1ccc(C2(C(=O)Nc3ccc(F)cc3)CCC2)cn1 [Example 11, 1-{6-[(4,4-dimethylpentanoyl)amino]pyridin-3-yl}-N-(4-fluorophenyl)cyclobutane-1-carboxamide]
145	≥ 10000	–	O=C(Nc1ccc(C2(C(=O)Nc3ccc(F)cc3)CCC2)cn1)N1CCCC1 [Example 31, N-(5-{1-[(4-fluorophenyl)carbamoyl]cyclobutyl}pyridin-2-yl)pyrrolidine-1-carboxamide]
2080	≥ 10000	157	O=C(Nc1ccc(C2(C(=O)Nc3ccc(F)cc3)CCC2)cn1)c1cccc(Cl)c1F [Example 14, 3-chloro-2-fluoro-N-(5-{1-[(4-fluorophenyl)carbamoyl]cyclobutyl}pyridin-2-yl)benzamide]
